Measured values taken from the NIST ThermoML archive (doi:10.1021/acs.jced.7b00035).
Values joined by “and” are separate entries in the source; they are usually repeats but may differ in a detail not shown here. Equal entries are not always repeated. ± gives the expanded uncertainty stated by the source.

How the values were obtained:
[1] = 101.33 kPa, Liquid, Vibrating tube method
[2] = xn = mol fraction of the nth substance listed; settings: 100 kPa, Liquid, Vibrating tube method
[3] = excess molar enthalpy (molar enthalpy of mixing); xn = mol fraction of the nth substance listed; settings: 100 kPa, Liquid, Flow calorimetry

CCC(=O)CC [pentan-3-one]
[1]
Settings	mass density [kg/m3]
288.15 K	818.9 ± 0.61
298.15 K	809.16 ± 0.61
308.15 K	799.32 ± 0.61
318.15 K	789.41 ± 0.61

CCCC(C)=O [pentan-2-one]
[1]
Settings	mass density [kg/m3]
288.15 K	811.06 ± 0.61
298.15 K	801.41 ± 0.61
308.15 K	791.66 ± 0.61
318.15 K	781.83 ± 0.61

CCCCC(C)=O [2-hexanone]
[1]
Settings	mass density [kg/m3]
288.15 K	815.72 ± 0.78
298.15 K	806.7 ± 0.77
308.15 K	797.6 ± 0.77
318.15 K	788.45 ± 0.77

CC(=O)CC(C)C [4-methylpentan-2-one]
[1]
Settings	mass density [kg/m3]
288.15 K	805.12 ± 0.61
298.15 K	795.98 ± 0.61
308.15 K	786.75 ± 0.61
318.15 K	777.46 ± 0.61

CCCCC(C)=O [2-hexanone] + O
Settings	excess molar enthalpy, [3]	mass density, [2]
288.15 K, x1 = 0.00087	-0.00256 kcal/mol and -0.00254 kcal/mol	998.466 ± 0.037 kg/m3 and 998.439 ± 0.037 kg/m3
288.15 K, x1 = 0.00116	-0.00343 kcal/mol and -0.00339 kcal/mol	998.248 ± 0.057 kg/m3 and 998.255 ± 0.042 kg/m3
288.15 K, x1 = 0.00145	-0.00423 kcal/mol and -0.00421 kcal/mol	998.054 ± 0.038 kg/m3
288.15 K, x1 = 0.001739	-0.00503 kcal/mol and -0.00504 kcal/mol	997.852 ± 0.039 kg/m3 and 997.853 ± 0.039 kg/m3
298.15 K, x1 = 0.000869	-0.00197 ± 0.00021 kcal/mol	996.347 ± 0.15 kg/m3
298.15 K, x1 = 0.00087	-0.00198 ± 0.00021 kcal/mol	996.364 ± 0.15 kg/m3
298.15 K, x1 = 0.001159	-0.00264 ± 0.000287 kcal/mol	996.128 ± 0.11 kg/m3
298.15 K, x1 = 0.00116	-0.00262 ± 0.000287 kcal/mol	996.137 ± 0.11 kg/m3
298.15 K, x1 = 0.001448	-0.00321 ± 0.000621 kcal/mol	995.926 ± 0.17 kg/m3
298.15 K, x1 = 0.00145	-0.00329 ± 0.000621 kcal/mol	995.903 ± 0.17 kg/m3
298.15 K, x1 = 0.001737	-0.00394 ± 0.000287 kcal/mol	995.664 ± 0.94 kg/m3
298.15 K, x1 = 0.00174	-0.0039 ± 0.000287 kcal/mol	995.681 ± 0.94 kg/m3
308.15 K, x1 = 0.000869	-0.00138 ± 0.000196 kcal/mol	993.309 ± 0.039 kg/m3 and 993.32 ± 0.039 kg/m3
308.15 K, x1 = 0.001158	-0.0018 ± 0.000239 kcal/mol	993.074 ± 0.08 kg/m3
308.15 K, x1 = 0.001159	-0.00181 ± 0.000645 kcal/mol	993.08 ± 3.3 kg/m3
308.15 K, x1 = 0.001447	-0.00226 ± 0.000335 kcal/mol	992.84 ± 0.095 kg/m3
308.15 K, x1 = 0.001448	-0.00224 ± 0.00022 kcal/mol	992.834 ± 4 kg/m3
308.15 K, x1 = 0.001735	-0.00273 ± 0.000287 kcal/mol	992.573 ± 1.6 kg/m3
308.15 K, x1 = 0.001737	-0.00273 ± 0.000382 kcal/mol	992.571 ± 2.4 kg/m3
318.15 K, x1 = 0.000868	-0.000825 ± 0.000198 kcal/mol	989.45 ± 0.046 kg/m3
318.15 K, x1 = 0.000869	-0.000817 ± 0.000198 kcal/mol	989.446 ± 0.046 kg/m3
318.15 K, x1 = 0.00087	-0.000813 ± 0.000198 kcal/mol	989.455 ± 0.046 kg/m3
318.15 K, x1 = 0.001158	-0.0011 ± 0.000263 kcal/mol	989.173 ± 0.07 kg/m3
318.15 K, x1 = 0.001159	-0.00111 kcal/mol and -0.00109 kcal/mol	989.168 ± 0.071 kg/m3 and 989.197 ± 0.28 kg/m3
318.15 K, x1 = 0.001447	-0.00133 ± 0.000359 kcal/mol	988.934 ± 0.059 kg/m3
318.15 K, x1 = 0.001448	-0.00135 kcal/mol and -0.00132 kcal/mol	988.931 ± 0.059 kg/m3 and 988.956 ± 0.32 kg/m3
318.15 K, x1 = 0.001736	-0.00161 ± 0.000359 kcal/mol	988.678 ± 0.47 kg/m3
318.15 K, x1 = 0.001737	-0.00162 kcal/mol and -0.00165 kcal/mol	988.651 ± 0.47 kg/m3 and 988.636 ± 0.73 kg/m3

CC(=O)C(C)C [3-methyl-2-butanone]
[1]
Settings	mass density [kg/m3]
288.15 K	808.3 ± 0.7
298.15 K	798.51 ± 0.7
308.15 K	788.6 ± 0.7
318.15 K	778.62 ± 0.7
